These results are taken from article PMC11995724, “Antibiotic target discovery by integrated phenotypic and activity-based profiling of electrophilic fragments” (Cell chemical biology, 2025).

The data set is described as follows: in vitro. The following applies: human, hek293t cells.
Regarding `CC(NC(=O)C(C#N)=Cc1cc(O)ccc1[N+](=O)[O-])c1ccccc1` (stereo not drawn) [9-D15, 2-cyano-3-(5-hydroxy-2-nitrophenyl)-N-(1-phenylethyl)prop-2-enamide], the viability at 48 h, 25 µM worked out at 101%. With `N#CC(=Cc1csc2ccccc12)C(=O)NCc1ccco1` [9-D16, 3-(1-benzothiophen-3-yl)-2-cyano-N-[(furan-2-yl)methyl]prop-2-enamide], the viability at 48 h, 25 µM was determined as 108%. As for `Cc1cccc(NC(=O)C(C#N)=Cc2cc(C)n(C3CC3)c2C)c1` [9-D17, 2-cyano-3-(1-cyclopropyl-2,5-dimethyl-1H-pyrrol-3-yl)-N-(3-methylphenyl)prop-2-enamide], the viability at 48 h, 25 µM is 94.3%.

Regarding `Cn1cc(C=C(C#N)C(=O)N2CCCC2)c(-c2cc3ccccc3o2)n1` [9-D18, 3-[3-(1-benzofuran-2-yl)-1-methyl-1H-pyrazol-4-yl]-2-(pyrrolidine-1-carbonyl)prop-2-enenitrile], the viability at 48 h, 25 µM came to 106%. With `CC(=O)Nc1ccc(C=C(C#N)C(=O)Nc2cccc(C)c2C)cc1` [9-D19, 2-cyano-N-(2,3-dimethylphenyl)-3-(4-acetamidophenyl)prop-2-enamide], the viability at 48 h, 25 µM was 107%. For the compound `N#CC(=Cc1ccco1)C(=O)Nc1cc2c(cc1Cl)NC(=O)CO2` [9-D20, N-(6-chloro-3-oxo-3,4-dihydro-2H-1,4-benzoxazin-7-yl)-2-cyano-3-(furan-2-yl)prop-2-enamide], the viability at 48 h, 25 µM came out at 87%. For `C=CCNC(=O)C(C#N)=Cc1ccc(C)c(C)c1` [9-D21, 2-cyano-3-(3,4-dimethylphenyl)-N-(prop-2-en-1-yl)prop-2-enamide] the value was 110%. Regarding `COCCNC(=O)C(C#N)=Cc1ccc(O)cc1` [9-D22, 2-cyano-3-(4-hydroxyphenyl)-N-(2-methoxyethyl)prop-2-enamide], the viability at 48 h, 25 µM was 110%.

Consider `N#CC(=Cc1ccc2[nH]c(=O)[nH]c2c1)C(=O)NC1CCCC1` [9-E03, 2-cyano-N-cyclopentyl-3-(2-oxo-2,3-dihydro-1H-1,3-benzodiazol-5-yl)prop-2-enamide], for which the viability at 48 h, 25 µM was 121%.

`Cc1ccc(NC(=O)C(C#N)=Cc2ccc(C(C)(C)C)cc2)cc1C` [9-E04, 3-(4-tert-butylphenyl)-2-cyano-N-(3,4-dimethylphenyl)prop-2-enamide]: the viability at 48 h, 25 µM worked out at 104%. Consider `CC(C#N)Oc1ccc(C=C(C#N)C(=O)Nc2ccccc2Cl)cc1` (stereo not drawn) [9-E05, N-(2-chlorophenyl)-2-cyano-3-[4-(1-cyanoethoxy)phenyl]prop-2-enamide], for which the viability at 48 h, 25 µM is 111%. The figure for `Cc1ccccc1C(C)NC(=O)C(C#N)=Cc1ccco1` (stereo not drawn) [9-E06, 2-cyano-3-(furan-2-yl)-N-[1-(2-methylphenyl)ethyl]prop-2-enamide] is 107%; for `Cc1nn(-c2ccccc2)c(C)c1C=C(C#N)C(=O)Nc1nccs1` [9-E07, 2-cyano-3-(3,5-dimethyl-1-phenyl-1H-pyrazol-4-yl)-N-(1,3-thiazol-2-yl)prop-2-enamide] it is 119%. The figure for `COc1ccc2cc(C=C(C#N)C(=O)Nc3nccs3)ccc2c1` [9-E08, 2-cyano-3-(6-methoxynaphthalen-2-yl)-N-(1,3-thiazol-2-yl)prop-2-enamide] is 63.3%; for `CCCCNC(=O)C(C#N)=Cc1cc(C)c(O)c(C)c1` [9-E09, N-butyl-2-cyano-3-(4-hydroxy-3,5-dimethylphenyl)prop-2-enamide] it is 111%; for `COc1ccc(C=C(C#N)C(=O)Nc2cccc3ccccc23)cc1` [9-E10, 2-cyano-3-(4-methoxyphenyl)-N-(naphthalen-1-yl)prop-2-enamide] it is 105%. On to `CC(C)NC(=O)C(C#N)=Cc1ccc2c(c1)OCCO2` [9-E11, 2-cyano-3-(2,3-dihydro-1,4-benzodioxin-6-yl)-N-(propan-2-yl)prop-2-enamide], for which the viability at 48 h, 25 µM was 118%. For `Cc1cccc(NC(=O)C(C#N)=Cc2ccc(F)cc2)c1` [9-E12, 2-cyano-3-(4-fluorophenyl)-N-(3-methylphenyl)prop-2-enamide], the viability at 48 h, 25 µM is 90.9%.

Take `CC(C)NC(=O)C(C#N)=Cc1c(Cl)cccc1Cl` [9-E13, 2-cyano-3-(2,6-dichlorophenyl)-N-(propan-2-yl)prop-2-enamide]: the viability at 48 h, 25 µM amounted to 87%.

Turning to `N#CC(=Cc1ccc(N)cc1)C(=O)N1CCCC1` [9-E14, 3-(4-aminophenyl)-2-(pyrrolidine-1-carbonyl)prop-2-enenitrile], the viability at 48 h, 25 µM worked out at 101%. Turning to `N#CC(=Cc1ccc(Cl)c([N+](=O)[O-])c1)C(=O)NCc1ccco1` [9-E15, 3-(4-chloro-3-nitrophenyl)-2-cyano-N-[(furan-2-yl)methyl]prop-2-enamide], the viability at 48 h, 25 µM worked out at 6.64%. The figure for `N#CC(=Cc1ccco1)C(=O)Nc1ccc2nc(S)oc2c1` [9-E16, 2-cyano-3-(furan-2-yl)-N-(2-sulfanyl-1,3-benzoxazol-6-yl)prop-2-enamide] is 110%. Consider `CCCCNC(=O)C(C#N)=Cc1cccs1` [9-E17, N-butyl-2-cyano-3-(thiophen-2-yl)prop-2-enamide], for which the viability at 48 h, 25 µM was 117%. Take `COc1cc(Cl)ccc1CNC(=O)C(C#N)=Cc1ccco1` [9-E18, N-[(4-chloro-2-methoxyphenyl)methyl]-2-cyano-3-(furan-2-yl)prop-2-enamide]: the viability at 48 h, 25 µM was 109%. As to `Cc1ccc(C=C(C#N)C(=O)Nc2cc(Cl)ccc2Cl)s1` [9-E19, 2-cyano-N-(2,5-dichlorophenyl)-3-(5-methylthiophen-2-yl)prop-2-enamide], the viability at 48 h, 25 µM was found to be 107%. Turning to `N#CC(=Cc1cnc2ccc(C#N)cn12)C(=O)Nc1ccc(F)cc1` [9-E20, 2-cyano-3-{6-cyanoimidazo[1,2-a]pyridin-3-yl}-N-(4-fluorophenyl)prop-2-enamide], the viability at 48 h, 25 µM amounted to 99.4%. On to `Cc1ccccc1NC(=O)C(C#N)=Cc1ccc(N2CCCCC2)cc1` [9-E21, 2-cyano-N-(2-methylphenyl)-3-[4-(piperidin-1-yl)phenyl]prop-2-enamide], for which the viability at 48 h, 25 µM is 91.8%. For the compound `N#CC(=Cc1ccc(Cl)cc1)C(=O)Nc1ccc2c(c1)OCCO2` [9-E22, 3-(4-chlorophenyl)-2-cyano-N-(2,3-dihydro-1,4-benzodioxin-6-yl)prop-2-enamide], the viability at 48 h, 25 µM came to 106%. As to `N#CC(=Cc1ccc(O)cc1)C(=O)Nc1cc(Cl)ccc1Cl` [9-F03, 2-cyano-N-(2,5-dichlorophenyl)-3-(4-hydroxyphenyl)prop-2-enamide], the viability at 48 h, 25 µM was 87%. The figure for `COCC(C)NC(=O)C(C#N)=Cc1cc2cc(F)ccc2o1` (stereo not drawn) [9-F04, 2-cyano-3-(5-fluoro-1-benzofuran-2-yl)-N-(1-methoxypropan-2-yl)prop-2-enamide] is 99.8%; for `C=CCNC(=O)C(C#N)=Cc1ccc(C)s1` [9-F05, 2-cyano-3-(5-methylthiophen-2-yl)-N-(prop-2-en-1-yl)prop-2-enamide] it is 108%; for `N#CC(=Cc1cccc(Oc2ccccc2)c1)C(=O)N1CCCC1` [9-F06, 3-(3-phenoxyphenyl)-2-(pyrrolidine-1-carbonyl)prop-2-enenitrile] it is 46.3%. Consider `CCn1nc(C)c(C=C(C#N)C(=O)Nc2ccccc2Cl)c1C` [9-F07, N-(2-chlorophenyl)-2-cyano-3-(1-ethyl-3,5-dimethyl-1H-pyrazol-4-yl)prop-2-enamide], for which the viability at 48 h, 25 µM came out at 110%.

Usually viability stands for a read-out of living cells in per cent, often relative to untreated cells.
